Data on eleven compounds can be found in patent US11267844B2, “Spirothietane nucleosides” (Janssen Pharmaceutica NV, priority 2017, dated 2022).

Like-named read-outs stand apart in the source and are kept apart here.

For one series, the system named is CHIKV strain S27. The series can be described thus: CHIKV CPE inhibition assay in Huh7 cells. Conditions: Chikungunya virus. Type of series: cell-based. How it is done:
The antiviral activities of the nucleoside analogs against chikungunya virus (CHIKV) were tested using a cell-based high-throughput CPE (cytopathic effect) inhibition assay. In this assay, CHIKV strain S27 and Huh7 cells (a human hepatoma cell line) were employed. The test compounds were prepared in a 9-point fourfold serial dilutions and plated in a 384-well plate. Then, a density of 8000 cells/well and an MOI (Multiplicity of Infection) of 0.25 CHIKV were added to each well. The plates were incubated at 37° C./5% CO2 for 2 days. The antiviral activity of a test compound was measured by addition of an ATPLite™ 1-step kit (PerkinElmer), which measures the ATP levels in live cells protected from viral CPE by a test compound. The cytotoxicity of test compounds was measured in parallel in the absence of virus infection. The readout is luminescence.

The test system of series [1] is HCV replicon (NS3-NS5B regions of HCV type 1b) in Huh-7 luc/neo cells. The series can be described thus: HCV replicon assay (Huh-Luc cells, luciferase read-out). Type of series: cell-based. Conditions: Hepatitis C virus. The source says: The compounds of Formula (I) were examined for activity against HCV in a cellular assay. […] The cellular assay was based on a bicistronic expression construct, as described by Lohmann et al. (1999) Science vol. 285 pp. 110-113 with modifications described by Krieger et al. (2001) Journal of Virology 75: 4614-4624, in a multi-target screening strategy.
In essence, the method was as follows. The assay utilized the stably transfected cell line Huh-7 luc/neo (hereafter referred to as Huh-Luc). This cell line harbors an RNA encoding a bicistronic expression construct comprising the wild type NS3-NS5B regions of HCV type 1b translated from an internal ribosome entry site (IRES) from encephalomyocarditis virus (EMCV), preceded by a reporter portion (FfL-luciferase), and a selectable marker portion (neo^R, neomycine phosphotransferase). The construct is bordered by 5′ and 3′ NTRs (non-translated regions) from HCV genotype 1b. Continued culture of the replicon cells in the presence of G418 (neo^R) is dependent on the replication of the HCV-RNA. The stably transfected replicon cells that express HCV-RNA, which replicates autonomously and to high levels, encoding inter alia luciferase, were used for screening the antiviral compounds.
The replicon cells were plated in 384-well plates in the presence of the test and control compounds which were added in various concentrations. Following an incubation of three days, HCV replication was measured by assaying luciferase activity (using standard luciferase assay substrates and reagents and a Perkin Elmer ViewLux™ ultraHTS microplate imager). Replicon cells in the control cultures have high luciferase expression in the absence of any inhibitor. The inhibitory activity of the compound on luciferase activity was monitored on the Huh-Luc cells, enabling a dose-response curve for each test compound. EC50 values were then calculated, which value represents the amount of the compound required to decrease the level of detected luciferase activity by 50%, or more specifically, the ability of the genetically linked HCV replicon RNA to replicate.

A short description of series [2]: Cytotoxicity in Vero cells (ATPlite cell viability). Type of series: cell-based. Conditions: African green monkey, Table 1A, read-out: Tox Vero (CC50). How it is done: (§1) The antiviral activity of the compounds against DENV-2/16681/eGFP was determined in a phenotypic antiviral assay with eGFP read-out, a measure for the amount of virus (TV-WI-03476 and TV-WI-05601). In parallel, cytotoxicity of the compounds was measured using ATPLite™ (PerkinElmer, Waltham, Mass.). The assay was performed in two different cell-lines (Vero and Huh-7) to exclude cell-specific activity of the compound.
(§2) In parallel, cytotoxic effects of the compounds (50% cytotoxic concentration [CC50] and 90% cytotoxic concentration [CC90]) were evaluated using an ATPlite cell viability luminescence assay (PerkinElmer). To this end, ATPlite was added to the wells according to the supplier's instructions once the eGFP read-out was performed, and the luminescence was measured; a measure directly relating to the number of viable cells. The CC50 was determined as the 50% inhibitory concentration for the luminescent signal in compound-treated DENV-infected cells compared to untreated DENV-infected cells (virus control), using a medium control as baseline of emitted light (i.e., 0% signal).
On the technique in general: ATP-based viability assays read luminescence as a measure of living cells.

Series [3] is described as follows: Cytotoxicity in Huh-7 cells (ATPlite cell viability). Type of series: cell-based. Particulars: human, Table 1A, read-out: Tox Huh-7 (CC50). The procedure:
as §1, §2

Series [4] relates to DENV-2/16681/eGFP. The series is described as follows: Antiviral activity against DENV-2/16681/eGFP in Huh-7 cells (eGFP read-out). Type of series: cell-based, dengue virus serotype 2. Conditions: Dengue virus, DENV2, Huh-7, 72 h, read-out: DENV Huh-7 (EC50, μM). The procedure: as §1
(§3) DENV-2/16681/eGFP was produced by the transfection of the in vitro transcribed RNA of plasmid pFK-DVs-G2A (purchased from Prof. R. Bartenschlager, University of Heidelberg, Germany; FIG. 1) into Huh-7 cells (human hepatocarcinoma cells; kindly provided by Prof. R. Bartenschlager) (TV-WI-04247).
(§4) In brief, 2,500 Vero cells (African green monkey kidney cells; European Collection of Cell Cultures [ECACC], Porton Down, UK; catalogue number 84113001) or Huh-7 cells were seeded in 384-well plates containing 9-fold serially diluted test compound. After incubating 24 h at 37° C., Vero and Huh-7 cells were infected with DENV-2/16681/eGFP at a multiplicity of infection (MOI) of 1 and 5, respectively. After 3 days of incubation at 37° C., the viral replication was quantified by measuring eGFP expression in the cells with a laser microscope. The 50% effective concentration (EC50) was defined as the concentration inhibiting 50% of the eGFP expression of the compound-treated DENV-infected cells vs. the untreated DENV-infected cells (virus control), using the cell controls as baseline of eGFP signal (i.e., 0% signal). In the same way, the 90% effective concentration (EC90) was calculated.

Series [5] deals with DENV-2/16681/eGFP. The series can be described thus: Antiviral activity against DENV-2/16681/eGFP in Vero cells (eGFP read-out). Type of series: cell-based, dengue virus serotype 2. Particulars: Dengue virus, DENV2, Vero, 72 h, read-out: DENV Vero (EC50, μM). How it is done:
as §1, §3, §4

Where [6] appears, read: Huh-7, Table 1C, comparison with spiro-oxetane derivatives, read-out: CHIKV, Huh7 (EC50).
The mark [7] stands for this setting: Huh-7, Table 1C, comparison with spiro-oxetane derivatives, read-out: HCV, Huh-7 (EC50).
[8] abbreviates: Huh-7, 48 h, Table 1A, Huh7 cells, MOI 0.25, 2 days, read-out: CHIKV Huh-7 (EC50).
The mark [9] stands for this setting: Huh-7, 72 h, Table 1A, Huh-Luc replicon cells, 3 days, read-out: HCV Huh-7 (EC50).
Where [10] appears, read: Huh-7, 48 h, read-out: CHIKV Huh-7 (EC50, μM).

One may read the EC50 as the concentration that produces a half-maximal response. Turning to `CC(C)OC(=O)[C@H](C)NP(=O)(OC[C@H]1O[C@@H](n2ccc(=O)[nH]c2=O)[C@@]2(CCO2)[C@@H]1O)Oc1ccccc1` (mixture of isomers) [reference compound], the EC50 with CHIKV strain S27 (setting [6]) is greater than 100 µM; in series [1] (setting [7]), 21 µM.
Consider `CC(C)OC(=O)[C@H](C)NP(=O)(OC[C@@]1(F)O[C@@H](n2ccc(=O)[nH]c2=O)[C@@]2(CCO2)[C@@H]1O)Oc1ccccc1` (mixture of isomers) [reference compound], for which the EC50 (in the series on CHIKV strain S27 (setting [6]); in series [1] (setting [7])) was greater than 100 µM throughout.
What is called CC50 is the concentration that lowers cell viability or growth by half. `CC(C)OC(=O)C(C)NP(=O)(OC[C@@]1(N=[N+]=[N-])O[C@@H](n2ccc(=O)[nH]c2=O)[C@@]2(CCS2)[C@@H]1O)Oc1ccccc1` (stereo in doubt) [Compound 45, isopropyl (2R)-2-[[[(4R,5R,6R,8R)-6-azido-8-(2,4-dioxopyrimidin-1-yl)-5-hydroxy-7-oxa-1-thiaspiro[3.4]octan-6-yl]methoxy-phenoxy-phosphoryl]amino]propanoate]: the EC50 in the series with CHIKV strain S27 (setting [8]) was greater than 100 µM; in series [1] (setting [9]), 5 µM; in the series with DENV-2/16681/eGFP [4], 62 µM; in the series with DENV-2/16681/eGFP [5], 62 µM. The CC50 in series [2] and in series [3] was greater than 100 µM throughout.
`O=c1ccn([C@@H]2O[C@H](CO)[C@@H](O)[C@]23CCS3)c(=O)[nH]1` [Compound 7, 1-((4R,5R,7R,8R)-8-hydroxy-7-(hydroxymethyl)-6-oxa-1-thiaspiro[3.4]octan-5-yl)pyrimidine-2,4(1H,3H)-dione]: the CC50 in series [2] and in series [3] was greater than 100 µM in each case. Moreover, the EC50 (in series [1] (setting [9]); in the series on DENV-2/16681/eGFP [5]) was greater than 100 µM in each case.
`CC(C)OC(=O)[C@H](C)NP(=O)(OC[C@H]1O[C@@H](n2ccc(=O)[nH]c2=O)[C@@]2(CCS2)[C@@H]1O)Oc1ccccc1` (stereo partly drawn) [Compound 9, (2S)-isopropyl 2-(((((4R,5R,7R,8R)-5-(2,4-dioxo-3,4-dihydropyrimidin-1(2H)-yl)-8-hydroxy-6-oxa-1-thiaspiro[3.4]octan-7-yl)methoxy)(phenoxy)phosphoryl)amino)propanoate]: the EC50 in the series with CHIKV strain S27 (setting [8]) is 18 µM; with CHIKV strain S27 (setting [6]), 18 µM; in series [1] (setting [9]), 1 µM; in series [1] (setting [7]), 1 µM; in the series on DENV-2/16681/eGFP [4] it was 9 µM; with DENV-2/16681/eGFP [5], greater than 100 µM. Further, the CC50 in series [2] and in series [3] was greater than 100 µM throughout.
As to `CC(C)C(=O)OC[C@H]1O[C@@H](n2ccc(=O)[nH]c2=O)[C@@]2(CCS2)[C@@H]1OC(=O)C(C)C` [Compound 10, (4R,5R,7R,8R)-5-(2,4-dioxo-3,4-dihydropyrimidin-1(2H)-yl)-7-((isobutyryloxy)methyl)-6-oxa-1-thiaspiro[3.4]octan-8-yl isobutyrate], the EC50 (in the series on CHIKV strain S27 (setting [10]); in series [1] (setting [9]); in the series on DENV-2/16681/eGFP [4]; with DENV-2/16681/eGFP [5]) was greater than 100 µM in each case. In addition, the CC50 in series [2] and in series [3] was greater than 100 µM each time.
Consider `CC(C)C(=O)OC[C@H]1O[C@@H](n2ccc(N)nc2=O)[C@@]2(CCS2)[C@@H]1OC(=O)C(C)C` [Compound 11, (4R,5R,7R,8R)-5-(4-amino-2-oxopyrimidin-1(2H)-yl)-7-((isobutyryloxy)methyl)-6-oxa-1-thiaspiro[3.4]octan-8-yl isobutyrate], for which the concentration for a half-maximal effect (EC50) (with CHIKV strain S27 (setting [10]); in series [1] (setting [9]); with DENV-2/16681/eGFP [4]; in the series on DENV-2/16681/eGFP [5]) was greater than 100 µM each time. The CC50 in series [2] and in series [3] was greater than 100 µM throughout.
Turning to `Nc1ccn([C@@H]2O[C@H](CO)[C@@H](O)[C@]23CCS3)c(=O)n1` [Compound 12, 4-amino-1-((4R,5R,7R,8R)-8-hydroxy-7-(hydroxymethyl)-6-oxa-1-thiaspiro[3.4]octan-5-yl)pyrimidin-2(1H)-one], the EC50 (with CHIKV strain S27 (setting [10]); in series [1] (setting [9]); with DENV-2/16681/eGFP [4]; with DENV-2/16681/eGFP [5]) was greater than 100 µM in each case. Moreover, the CC50 in series [2] and in series [3] was greater than 100 µM throughout.
Turning to `CC(C)OC(=O)[C@H](C)NP(=O)(OC[C@H]1O[C@@H](n2ccc(N)nc2=O)[C@@]2(CCS2)[C@@H]1O)Oc1ccccc1` (stereo partly drawn) [Compound 17, (2S)-isopropyl 2-(((((4R,5R,7R,8R)-5-(4-amino-2-oxopyrimidin-1(2H)-yl)-8-hydroxy-6-oxa-1-thiaspiro[3.4]octan-7-yl)methoxy)(phenoxy)phosphoryl)amino)propanoate], the EC50 is greater than 50 µM with CHIKV strain S27 (setting [8]), greater than 50 µM in series [1] (setting [9]), 19 µM with DENV-2/16681/eGFP [4] and greater than 50 µM in the series on DENV-2/16681/eGFP [5]. Further, the CC50 in series [2] and in series [3] was greater than 50 µM throughout.
Turning to `O=c1ccn([C@@H]2O[C@](F)(CO)[C@@H](O)[C@]23CCS3)c(=O)[nH]1` [Compound 22, 1-((4R,5R,7S,8R)-7-fluoro-8-hydroxy-7-(hydroxymethyl)-6-oxa-1-thiaspiro[3.4]octan-5-yl)pyrimidine-2,4(1H,3H)-dione], the EC50 with CHIKV strain S27 (setting [10]) is greater than 100 µM; in series [1] (setting [9]) it was 84 µM; in the series on DENV-2/16681/eGFP [4], 69 µM; in the series on DENV-2/16681/eGFP [5], 63 µM. Besides, the CC50 in series [2] and in series [3] was greater than 100 µM throughout.
On to `CC(C)OC(=O)[C@H](C)NP(=O)(OC[C@@]1(F)O[C@@H](n2ccc(=O)[nH]c2=O)[C@@]2(CCS2)[C@@H]1O)Oc1ccccc1` (stereo partly drawn) [Compound 23, (2S)-isopropyl 2-(((((4R,5R,7S,8R)-5-(2,4-dioxo-3,4-dihydropyrimidin-1(2H)-yl)-7-fluoro-8-hydroxy-6-oxa-1-thiaspiro[3.4]octan-7-yl)methoxv)(phenoxy)phosphoryl)amino)propanoate], for which the EC50 came out at 3 µM in the series with CHIKV strain S27 (setting [8]); 3 µM in the series on CHIKV strain S27 (setting [6]); 2 µM in series [1] (setting [9]); 2 µM in series [1] (setting [7]); 14 µM in the series with DENV-2/16681/eGFP [4]; 85 µM in the series with DENV-2/16681/eGFP [5]. In addition, the CC50 in series [2] and in series [3] was greater than 100 µM in each case.
